Experimental data published in ChEMBL document CHEMBL1201862, “PubChem BioAssay data set” (2004).
Calls of active or inactive are those of the source.

How the values were obtained:
Insulin-degrading enzyme [1] = target: T1, Insulin-degrading enzyme (Homo sapiens, UniProt P14735); assay: recombinant IDE activation, cell-free – biochemical, fluorescence polarization, counter-screen for IDE activator project, dose response (AID 588681)
T1 sequence (P14735 whole entry): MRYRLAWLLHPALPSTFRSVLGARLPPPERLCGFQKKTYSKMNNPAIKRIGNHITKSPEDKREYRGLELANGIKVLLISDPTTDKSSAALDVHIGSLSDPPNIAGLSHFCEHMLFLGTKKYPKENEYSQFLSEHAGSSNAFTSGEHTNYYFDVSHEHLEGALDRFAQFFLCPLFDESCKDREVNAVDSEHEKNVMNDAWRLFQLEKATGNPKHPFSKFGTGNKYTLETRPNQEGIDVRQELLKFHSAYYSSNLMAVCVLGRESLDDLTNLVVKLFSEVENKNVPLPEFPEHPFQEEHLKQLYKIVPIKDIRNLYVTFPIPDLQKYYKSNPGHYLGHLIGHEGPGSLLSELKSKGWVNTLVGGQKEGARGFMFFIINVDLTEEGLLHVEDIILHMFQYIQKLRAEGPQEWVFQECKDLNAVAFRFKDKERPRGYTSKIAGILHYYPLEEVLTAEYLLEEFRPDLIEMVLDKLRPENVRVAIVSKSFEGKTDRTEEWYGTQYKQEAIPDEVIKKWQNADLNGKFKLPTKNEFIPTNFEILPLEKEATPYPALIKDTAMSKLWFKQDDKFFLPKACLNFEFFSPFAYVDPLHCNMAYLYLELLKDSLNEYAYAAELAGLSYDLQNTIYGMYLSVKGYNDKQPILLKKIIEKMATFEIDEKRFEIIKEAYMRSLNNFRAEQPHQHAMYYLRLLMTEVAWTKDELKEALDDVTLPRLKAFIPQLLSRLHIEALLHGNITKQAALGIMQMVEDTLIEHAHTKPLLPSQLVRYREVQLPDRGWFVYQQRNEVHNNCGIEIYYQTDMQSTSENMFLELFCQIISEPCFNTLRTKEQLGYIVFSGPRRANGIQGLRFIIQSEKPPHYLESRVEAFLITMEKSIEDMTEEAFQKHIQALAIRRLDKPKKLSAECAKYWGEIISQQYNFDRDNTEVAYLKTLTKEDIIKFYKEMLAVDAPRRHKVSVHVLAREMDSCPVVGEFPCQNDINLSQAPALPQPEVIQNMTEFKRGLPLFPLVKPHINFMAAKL

Insulin-degrading enzyme [2] = target: T1, Insulin-degrading enzyme; assay: cellular IDE activation of Abeta substrate cleavage – fluorescence polarization, HEK cells, dose response (AID 588439); assay type: functional, cell-based
HEK293 [3] = assay: membrane integrity loss in HEK cells – cell-based, fluorescence, cytotoxicity control for IDE activator project, dose response (AID 588440); assay type: functional; details: Homo sapiens;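 also: cytotoxicity by LDH release measuring loss of membrane integrity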
HEK293 [4] = assay: optical interference in Abeta FP readout, dose response, artefact control for IDE activator project, biochemical, fluorescence polarization (AID 588442); assay type: functional, cell-based; details: Homo sapiens
Caspase-3 [5] = target: T2, Caspase-3 (Homo sapiens, UniProt P42574); assay type: functional
T2 sequence (P42574 whole entry): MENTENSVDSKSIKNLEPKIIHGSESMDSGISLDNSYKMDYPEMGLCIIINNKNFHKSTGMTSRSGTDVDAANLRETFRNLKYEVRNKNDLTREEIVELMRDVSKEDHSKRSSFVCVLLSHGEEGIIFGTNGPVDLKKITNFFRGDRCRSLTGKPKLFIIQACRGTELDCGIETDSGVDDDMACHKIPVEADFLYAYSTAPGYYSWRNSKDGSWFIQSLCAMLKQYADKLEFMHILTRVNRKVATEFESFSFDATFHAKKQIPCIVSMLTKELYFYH

[6] = target: T3, Sentrin-specific protease 7 (Homo sapiens, UniProt Q9BQF6); assay type: functional;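 also: Luminescence-based dose-response confirmation of ultra-high-throughput screening hits, measuring inhibition of SENP7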
T3 sequence (Q9BQF6 whole entry): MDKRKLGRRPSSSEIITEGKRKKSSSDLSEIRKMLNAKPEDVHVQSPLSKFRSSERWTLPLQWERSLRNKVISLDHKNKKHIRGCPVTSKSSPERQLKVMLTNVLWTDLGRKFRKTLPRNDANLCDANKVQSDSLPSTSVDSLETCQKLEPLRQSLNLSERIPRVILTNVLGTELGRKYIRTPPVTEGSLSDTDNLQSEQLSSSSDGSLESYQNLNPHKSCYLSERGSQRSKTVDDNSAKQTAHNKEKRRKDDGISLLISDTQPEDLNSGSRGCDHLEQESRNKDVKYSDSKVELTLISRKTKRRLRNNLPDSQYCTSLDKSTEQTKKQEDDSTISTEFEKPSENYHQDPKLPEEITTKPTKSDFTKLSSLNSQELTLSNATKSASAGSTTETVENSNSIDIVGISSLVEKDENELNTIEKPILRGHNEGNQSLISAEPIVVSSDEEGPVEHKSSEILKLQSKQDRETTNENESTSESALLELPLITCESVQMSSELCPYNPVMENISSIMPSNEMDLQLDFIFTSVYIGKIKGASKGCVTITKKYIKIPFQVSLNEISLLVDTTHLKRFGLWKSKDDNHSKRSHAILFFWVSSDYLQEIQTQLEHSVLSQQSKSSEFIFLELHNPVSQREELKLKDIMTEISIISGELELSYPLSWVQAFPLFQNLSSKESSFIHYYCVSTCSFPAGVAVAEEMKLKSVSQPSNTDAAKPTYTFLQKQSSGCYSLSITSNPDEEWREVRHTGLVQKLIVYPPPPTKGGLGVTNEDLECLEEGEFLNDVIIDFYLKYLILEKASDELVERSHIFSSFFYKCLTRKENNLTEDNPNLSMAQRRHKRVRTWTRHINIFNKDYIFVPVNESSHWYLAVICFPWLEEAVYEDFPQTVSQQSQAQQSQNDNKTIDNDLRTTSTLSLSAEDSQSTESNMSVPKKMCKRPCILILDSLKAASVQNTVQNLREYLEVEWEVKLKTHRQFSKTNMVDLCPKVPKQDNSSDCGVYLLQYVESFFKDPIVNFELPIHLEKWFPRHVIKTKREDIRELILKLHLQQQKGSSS

[7] = target: T4, Sentrin-specific protease 6 (Homo sapiens, UniProt Q9GZR1); assay type: functional
T4 sequence (Q9GZR1 whole entry): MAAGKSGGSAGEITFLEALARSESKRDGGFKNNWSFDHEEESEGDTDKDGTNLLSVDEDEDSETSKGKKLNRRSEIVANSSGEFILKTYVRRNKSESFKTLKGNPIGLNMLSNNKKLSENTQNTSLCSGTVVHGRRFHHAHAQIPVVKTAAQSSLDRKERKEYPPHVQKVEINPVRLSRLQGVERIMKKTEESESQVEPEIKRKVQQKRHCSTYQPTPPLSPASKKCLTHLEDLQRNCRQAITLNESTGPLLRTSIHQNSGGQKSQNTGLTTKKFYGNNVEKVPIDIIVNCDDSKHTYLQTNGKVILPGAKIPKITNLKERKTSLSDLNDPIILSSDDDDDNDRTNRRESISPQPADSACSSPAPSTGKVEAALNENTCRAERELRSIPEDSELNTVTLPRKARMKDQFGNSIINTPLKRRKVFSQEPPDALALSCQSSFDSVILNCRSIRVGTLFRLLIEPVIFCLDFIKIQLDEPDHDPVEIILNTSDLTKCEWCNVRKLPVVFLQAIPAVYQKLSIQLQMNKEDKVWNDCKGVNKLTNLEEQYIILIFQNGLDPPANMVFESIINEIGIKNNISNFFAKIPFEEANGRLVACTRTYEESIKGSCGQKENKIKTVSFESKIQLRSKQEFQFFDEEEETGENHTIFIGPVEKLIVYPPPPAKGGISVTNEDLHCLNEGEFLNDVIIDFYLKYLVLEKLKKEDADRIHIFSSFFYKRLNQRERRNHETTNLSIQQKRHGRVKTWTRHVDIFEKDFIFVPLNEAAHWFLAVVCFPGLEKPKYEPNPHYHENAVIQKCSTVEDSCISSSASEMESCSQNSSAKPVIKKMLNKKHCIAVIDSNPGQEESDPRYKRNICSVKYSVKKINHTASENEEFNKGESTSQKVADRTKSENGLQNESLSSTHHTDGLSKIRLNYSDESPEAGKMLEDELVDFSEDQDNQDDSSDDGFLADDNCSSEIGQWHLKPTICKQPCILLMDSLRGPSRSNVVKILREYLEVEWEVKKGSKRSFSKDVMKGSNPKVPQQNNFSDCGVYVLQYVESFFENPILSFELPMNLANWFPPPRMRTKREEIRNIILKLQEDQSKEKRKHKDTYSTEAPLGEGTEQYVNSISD

[8] = target: T5, Sentrin-specific protease 8 (Homo sapiens, UniProt Q96LD8); assay type: functional;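 also: luminescence read-out of SENP8 inhibition, dose-response confirmation following an ultra-high-throughput screen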
T5 sequence (Q96LD8 whole entry): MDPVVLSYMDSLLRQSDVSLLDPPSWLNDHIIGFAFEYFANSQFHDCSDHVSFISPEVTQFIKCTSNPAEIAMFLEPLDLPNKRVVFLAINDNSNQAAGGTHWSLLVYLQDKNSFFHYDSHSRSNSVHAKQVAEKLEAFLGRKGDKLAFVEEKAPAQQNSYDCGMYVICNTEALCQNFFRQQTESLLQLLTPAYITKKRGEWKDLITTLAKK

BJ [9] = assay: BJ-TERT fibroblast viability loss – cell-based, RAS-independent, luminescence, dose response (AID 1933); assay type: functional; details: Homo sapiens
BJ [10] = assay: cells; assay type: functional, cell-based; details: Homo sapiens
BJ [11] = assay: BJ-TERT-LT-ST fibroblast viability loss – cell-based, RAS-independent, luminescence, dose response (AID 1935); assay type: functional; details: Homo sapiens;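 also: BJ fibroblasts immortalized with TERT plus LT and ST oncogenes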
[12] = DRD fibroblast viability loss – cell-based, non-viral oncogenic, luminescence, dose response (AID 1934); assay type: functional; details: Homo sapiens
BJ [13] = assay: growth inhibition of engineered Ras-driven BJ cells – cell-based, alamar blue fluorescence, cherrypicked samples, dose response (AID 2631); assay type: functional; details: Homo sapiens;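 also: confirmatory dose-response assay in RAS-dependent BJ fibroblasts engineered with TERT, LT and ST, with cytotoxicity read by fluorescence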
[14] = target: T5, Sentrin-specific protease 8; assay: inhibition of human SENP8 cleavage activity – biochemical, luminescence, SAR follow-up (AID 504501); assay type: functional
Caspase-3 [15] = target: T2, Caspase-3; assay: SAR Analysis of small molecule inhibitors of Sentrin-specific proteases (SENPs) using a Caspase-3 Selectivity assay. [Related pubchem assays (depositor defined):AID2540, AID2599, AID434973, AID489001]; assay type: functional
[16] = target: T4, Sentrin-specific protease 6; assay: SAR Analysis of small molecule inhibitors of Sentrin-specific protease 6 (SENP6) using a Luminescent assay. [Related pubchem assays (depositor defined):AID2582, AID2599]; assay type: functional
[17] = target: T3, Sentrin-specific protease 7; assay: inhibition of human SENP7 cleavage activity – biochemical, luminescence, SAR follow-up (AID 504497); assay type: functional
[18] = luciferase reporter signal suppression in cells – H4 neuroglioma cells, luminescence, dose response (AID 1990); assay type: functional, cell-based
[19] = system: Streptococcus sp. 'group A'; assay: Streptococcus pyogenes SK(-)GAS viability under kanamycin – luminescence, BacTiterGlo, confirmation, counter-screen for streptokinase expression inhibitor project, dose response (AID 1900); assay type: functional, organism-based
[20] = Luminescence Cell-Based Dose Response HTS to Identify Inhibitors of 5'UTR Stem-Loop Driven Prion Protein mRNA Translation in H4 Neuroglioblastoma Cells. [Related pubchem assays: 1827 (Project Summary), 1813 (Primary HTS)]; assay type: functional
[21] = alpha-synuclein stem-loop luciferase translation blockers – H4 neuroglioma cells, luminescence, confirmation (AID 1988); assay type: functional, cell-based
Streptococcus = assay: GAS UMAA2166 growth inhibition – luminescence, BacTiterGlo, counter-screen for streptokinase expression inhibitor project, dose response (AID 1915); assay type: functional, organism-based;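 also: potency for reduction of bacterial viability or growth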
Nonstructural protein 1 = Nonstructural protein 1 (Influenza A virus, UniProt Q194T2); assay type: functional, Influenza A virus (A/California/07/2009(H1N1))
HEK293 [22] = assay: EBV LMP1 TES2 canonical NF-kB signalling blockers – cell-based, HEK293, luciferase, cherry-pick, dose response (AID 588343); assay type: functional; details: Homo sapiens

Sequence of Nonstructural protein 1 (Q194T2 whole entry): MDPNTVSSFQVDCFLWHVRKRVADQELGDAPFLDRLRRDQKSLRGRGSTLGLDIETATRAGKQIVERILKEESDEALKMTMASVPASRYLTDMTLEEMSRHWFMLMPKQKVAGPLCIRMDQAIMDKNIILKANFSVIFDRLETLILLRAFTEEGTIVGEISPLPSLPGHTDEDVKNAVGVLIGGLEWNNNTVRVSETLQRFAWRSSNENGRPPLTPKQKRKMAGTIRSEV

SMILES: COCCN=C(S)N(C)C1(c2ccccc2Cl)CCCCC1=O (stereo not given)
- EC50 (Insulin-degrading enzyme [1]): > 54.7 µM (inactive)
- EC50 (Insulin-degrading enzyme [2]): > 54.7 µM (inactive)
- IC50 (HEK293 [3]): > 89.2 µM (inactive)
- EC50 (HEK293 [4]): > 55.9 µM (inactive)

SMILES: COc1c(C(=O)Nc2ccc3[nH]c(O)nc3c2)cc2ccccc2c1Br
- EC50 (Insulin-degrading enzyme [1]): > 54.7 µM (inactive)
- EC50 (Insulin-degrading enzyme [2]): > 54.7 µM (inactive)
- IC50 (HEK293 [3]): 34.5 µM (inactive)
- EC50 (HEK293 [4]): > 54.7 µM (inactive)

SMILES: Cn1cc(/C=C/C(=O)c2ccccc2)c2ccccc21
- IC50 (Caspase-3 [5]): 17.7 µM (active)
- IC50 [6]: 3.24 µM (active)
- IC50 [7]: 7.58 µM (active)
- IC50 [8]: 64.9 µM (active)

SMILES: COc1ccc(-c2coc3cc4oc(=O)c5ccccc5c4cc23)cc1F
- EC50 (BJ [9]): 0.669 µM (inconclusive)
- EC50 (BJ [10]): 109 µM (inconclusive)
- EC50 (BJ [11]): 0.66 µM (inconclusive)
- EC50 [12]: 0.923 µM (active)
- EC50 (BJ [13]): 0.618 µM (inconclusive)

SMILES: Cc1ccnc(Nc2nc(-c3ccc(F)cc3)cs2)c1
- IC50 (Caspase-3 [5]): 44.4 µM (active)
- IC50 [6]: 6.9 µM (active)
- IC50 [7]: 38.4 µM (active)
- IC50 [8]: 9.93 µM (active)

SMILES: CCOc1cc(C(=S)N2CCCC2)ccc1OCc1ccccc1F
- IC50 [14]: > 99 µM (inactive)
- IC50 (Caspase-3 [15]): > 99 µM (inactive)
- IC50 [16]: > 99 µM (inactive)
- IC50 [17]: > 99 µM (inactive)

SMILES: O=[N+]([O-])c1ccc(O)c(/C=N/Nc2ncnc3c2cnn3-c2ccccc2)c1
- EC50 [18]: 11.4 µM (active)
- EC50 [19]: 1.02 µM (active)
- EC50 [20]: 23.6 µM (active)
- EC50 [21]: 5.1 µM (inconclusive)
- EC50 (Streptococcus): 1.01 µM (active)
- IC50 (Caspase-3 [5]): > 100 µM (inactive)
- IC50 [6]: 1.94 µM (active)
- IC50 (Nonstructural protein 1): > 100 µM (active)
- IC50 [7]: 11.3 µM (active)
- IC50 [8]: 2.44 µM (active)
- AC50 (HEK293 [22]): 18.5 µM (active)
- IC50 [14]: 1.49 µM (active)
- IC50 (Caspase-3 [15]): 4.42 µM (active)
- IC50 [16]: 1.54 µM (active)
- IC50 [17]: 1.4 µM (active)
